Counter-ions that a name gives are not always drawn. Like-named read-outs stand apart in the source and are kept apart here.
Assays:
[1] = target: T1, membrane TPP II (tripeptidyl peptidase II) (Rattus norvegicus, UniProt Q64560); assay: Inhibition of AAF-Amc hydrolysis by cerebral membranes (inhibition of TPP II); assay type: biochemical; details: for Ki: rat cerebral cortex membranes; for activity (stated in words): stereoisomers not separated (2(R/S) mixture)
T1 construct: evaluated by measuring the activity of membrane TPP II; from tissue; host or cells: rat cerebral cortex membranes
T1 sequence (Q64560 whole entry): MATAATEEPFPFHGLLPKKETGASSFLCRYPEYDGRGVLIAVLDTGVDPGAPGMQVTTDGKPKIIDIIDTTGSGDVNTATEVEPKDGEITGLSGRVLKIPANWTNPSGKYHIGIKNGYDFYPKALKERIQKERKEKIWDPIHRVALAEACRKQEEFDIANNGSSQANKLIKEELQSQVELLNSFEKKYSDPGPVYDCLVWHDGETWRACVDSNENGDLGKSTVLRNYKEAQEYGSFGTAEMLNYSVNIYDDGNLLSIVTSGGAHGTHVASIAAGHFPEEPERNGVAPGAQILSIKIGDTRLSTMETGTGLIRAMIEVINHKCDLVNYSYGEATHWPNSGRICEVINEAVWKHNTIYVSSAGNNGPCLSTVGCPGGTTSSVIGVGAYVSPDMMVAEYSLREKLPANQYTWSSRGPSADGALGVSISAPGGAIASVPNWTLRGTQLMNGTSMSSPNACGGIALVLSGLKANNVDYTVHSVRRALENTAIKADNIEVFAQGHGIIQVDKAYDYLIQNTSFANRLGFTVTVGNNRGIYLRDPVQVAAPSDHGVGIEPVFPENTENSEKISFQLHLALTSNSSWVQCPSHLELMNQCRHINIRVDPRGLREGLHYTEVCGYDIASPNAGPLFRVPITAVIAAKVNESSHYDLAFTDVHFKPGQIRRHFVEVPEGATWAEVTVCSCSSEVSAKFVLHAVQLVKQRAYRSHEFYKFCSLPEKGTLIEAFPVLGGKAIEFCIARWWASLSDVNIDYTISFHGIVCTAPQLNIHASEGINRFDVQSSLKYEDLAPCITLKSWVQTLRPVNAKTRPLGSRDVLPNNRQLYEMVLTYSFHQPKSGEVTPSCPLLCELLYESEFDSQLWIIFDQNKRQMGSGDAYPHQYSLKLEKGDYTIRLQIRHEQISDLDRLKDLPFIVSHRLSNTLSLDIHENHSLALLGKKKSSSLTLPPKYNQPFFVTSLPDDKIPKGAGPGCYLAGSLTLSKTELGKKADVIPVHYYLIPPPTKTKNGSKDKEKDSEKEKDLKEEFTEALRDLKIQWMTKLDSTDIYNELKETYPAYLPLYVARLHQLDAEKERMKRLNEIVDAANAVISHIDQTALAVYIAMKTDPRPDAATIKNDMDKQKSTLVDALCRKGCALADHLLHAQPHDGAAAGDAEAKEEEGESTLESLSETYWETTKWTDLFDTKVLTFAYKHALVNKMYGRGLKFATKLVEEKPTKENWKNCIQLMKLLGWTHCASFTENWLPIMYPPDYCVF
Experimental: The potency of the compounds of the invention was evaluated by measuring the activity of membrane TPP II.
Membranes of rat cerebral cortex were obtained by centrifugation (200,000×g min) of a homogenate in 10 volumes of a 50 mM potassium phosphate buffer, pH 7.4.
The centrifugation pellet was carefully washed and taken up in a buffer containing 10% glycerol and 0.1% Brij 35 to obtain a concentration of 25 mg protein/ml.
After 25 minutes of preincubation, incubation is carried out in 0.1 ml of a buffer containing 0.1% Brij 35, […], 25 μg of membrane protein and 50 μm of substrate Ala-Ala-Phe-Amc (AAF-Amc). Liberation of 7-amino4-methylcoumarin (Amc) is evaluated by fluorimetry.

[2] = Table 2, comparative compounds known in the art, substrate AAF-Amc, read-out: Ki (nM), Inhibition of AAF-Amc Hydrolysis by Cerebral Membranes, comparative compound
[3] = Table 1, substrate Ala-Ala-Phe-Amc, Ki calculated from 50% inhibition concentration and Km 23 μM, read-out: Ki (nM), Inhibition of AAF-Amc Hydrolysis by Cerebral Membranes

Row | Compound | melting point [°C] | Ki [1, 3] [nM] | further results
1 | CC[C@H](N)C(=O)C1c2c(ccc3ccccc23)N[C@@H]1C(=O)NCC(F)(F)F.O=C(O)C(F)(F)F (stereo partly shown) | 64 to 78 |  | 
2 | CCCCNC(=O)[C@H]1Nc2ccc3ccccc3c2C1C(=O)[C@@H](N)CC.O=C(O)C(F)(F)F (stereo partly shown) | 76 to 88 |  | 
3 | CC[C@H](N)C(=O)N1c2cccc(OC)c2C[C@H]1C(=O)NCC(F)(F)F.O=C(O)C(F)(F)F | 125 to 149 |  | 
4 | CCCCNC(=O)C1Cc2cc(O)ccc2N1C(=O)[C@@H](N)CC (mixture of isomers) [C.C.4, 1-(2(S)-aminobutyryl)-5-hydroxyindoline-2(R/S)-carboxylic acid n-butylamide, reference compound] |  |  | Ki [1, 2]: 6.6 nM
5 | CCCCNC(=O)C1Cc2cc(OC)ccc2N1C(=O)[C@@H](N)CC (mixture of isomers) [C.C.5, 1-(2(S)-aminobutyryl)-5-methoxyindoline-2(R/S)-carboxylic acid n-butylamide, reference compound] |  |  | Ki [1, 2]: 8 nM
6 | CC[C@H](N)C(=O)N1c2ccc(O)cc2CC1C(=O)NCC(F)(F)F (mixture of isomers) [Example 6, 1-(2(S)-aminobutyryl)-5-hydroxyindoline-2(R/S)-carboxylic acid (2,2,2,-trifluoroethyl)amide trifluoroacetate] |  | 2.8 | Ki ([1]; Table 2, compounds of the invention, substrate AAF-Amc, read-out: Ki (nM), Inhibition of AAF-Amc Hydrolysis by Cerebral Membranes, compound of the invention): 2.8 nM
7 | CC[C@H](N)C(=O)N1c2cccc(Cl)c2CC1C(=O)NCC(F)(F)F.O=C(O)C(F)(F)F (mixture of isomers) [Example 7, 1-(2(S)-aminobutyryl)-4-chloroindoline-2(R/S)-carboxylic acid (2,2,2-trifluoroethyl)amide trifluoroacetate] [listing 1 of 2 here] |  | 0.56 | activity (stated in words) [1]: useful activity
8 | CC[C@H](N)C(=O)N1c2cccc(F)c2CC1C(=O)NCC(F)(F)F.O=C(O)C(F)(F)F (mixture of isomers) [Example 8, 1-(2(S)-aminobutyryl)-4-fluoroindoline-2(R/S)-carboxylic acid (2,2,2-trifluoroethyl)amide trifluoroacetate] [listing 1 of 2 here] |  | 0.36 | activity (stated in words) [1]: useful activity
9 | CC[C@H](N)C(=O)N1c2ccc(OC)cc2CC1C(=O)NCC(F)(F)F (mixture of isomers) [Example 9, 1-(2(S)-aminobutyryl)-5-methoxyindoline-2(R/S)-carboxylic acid (2,2,2-trifluoroethyl)amide trifluoroacetate] |  | 0.7 | 
10 | CC[C@H](N)C(=O)N1c2ccc(OC(F)(F)F)cc2CC1C(=O)NCC(F)(F)F (mixture of isomers) [Example 10, 1-(2(S)-aminobutyryl)-5-trifluoromethoxyindoline-2(R/S)-carboxylic acid (2,2,2-trifluoroethyl)amide trifluoroacetate] |  | 1.1 | 
11 | CCCCNC(=O)C1Cc2c(ccc(Cl)c2Cl)N1C(=O)[C@@H](N)CC.O=C(O)C(F)(F)F (mixture of isomers) | 115 to 124 |  | 
12 | CC[C@H](N)C(=O)N1c2ccc(Cl)c(Cl)c2CC1C(=O)NCC(F)(F)F.O=C(O)C(F)(F)F (mixture of isomers) | 68 to 78 |  | 
13 | CC[C@H](N)C(=O)N1c2cccc(C)c2CC1C(=O)NCC(F)(F)F.O=C(O)C(F)(F)F (mixture of isomers) | 109 to 122 |  | 
14 | CC[C@H](N)C(=O)N1c2ccc(OC)c(OC)c2CC1C(=O)NCC(F)(F)F.O=C(O)C(F)(F)F (mixture of isomers) | 79 to 87 |  | 
15 | CC[C@H](N)C(=O)N1c2ccc3c(c2CC1C(=O)NCC(F)(F)F)OCO3.O=C(O)C(F)(F)F (mixture of isomers) | 89 to 98 |  | 
16 | CC[C@H](N)C(=O)N1c2cccc(Cl)c2CC1C(=O)NCC(F)(F)F.O=C(O)C(F)(F)F (mixture of isomers) [Example 7, 1-(2(S)-aminobutyryl)-4-chloroindoline-2(R/S)-carboxylic acid (2,2,2-trifluoroethyl)amide trifluoroacetate] [listing 2 of 2 here] | 104 to 106 |  | 
17 | CC[C@H](N)C(=O)N1c2cccc(F)c2CC1C(=O)NCC(F)(F)F.O=C(O)C(F)(F)F (mixture of isomers) [Example 8, 1-(2(S)-aminobutyryl)-4-fluoroindoline-2(R/S)-carboxylic acid (2,2,2-trifluoroethyl)amide trifluoroacetate] [listing 2 of 2 here] | 57.5 to 58.5 |  | 
18 | CC[C@H](N)C(=O)N1c2ccc(OC)cc2CC1C(=O)NCC(F)(F)F.O=C(O)C(F)(F)F (mixture of isomers) [Example 9, 1-(2(S)-aminobutyryl)-5-methoxyindoline-2(R/S)-carboxylic acid (2,2,2-trifluoroethyl)amide trifluoroacetate] | 63.5 to 66 |  | 
19 | CCCCNC(=O)[C@@H]1Cc2cc(Cl)ccc2N1C(=O)[C@@H](N)CC [C.C.1, 1-(2(S)-aminobutyryl)-5-chloroindoline-2(S)-carboxylic acid n-butylamide, reference compound] |  |  | Ki [1, 2]: 2.5 nM
20 | CC[C@H](N)C(=O)N1c2ccc(Cl)cc2C[C@H]1C(=O)NCC(F)(F)F.O=C(O)C(F)(F)F [Example 1, 1-(2(S)-aminobutyryl)-5-chloroindoline-2(S)-carboxylic acid (2,2,2-trifluoroethyl)amide trifluoroacetate] | 34 to 35 | 0.4 | 
21 | CC[C@H](N)C(=O)N1c2ccc(Cl)cc2C[C@H]1C(=O)NCCCl.O=C(O)C(F)(F)F [Example 2, 1-(2(S)-Aminobutyryl)-5-chloroindoline-2(S)-carboxylic acid 2-chloroethylamide trifluoroacetate] | 80 to 88 | 1.7 | 
22 | CC[C@H](N)C(=O)N1c2ccccc2C[C@H]1C(=O)NCCSC.O=C(O)C(F)(F)F [Example 3, 1-(2(S)-aminobutyryl)-indoline-2(S) carboxylic acid (2-methylthioethyl)amide trifluoroacetate] | 59.5 to 60.5 |  | 
23 | CC[C@H](N)C(=O)N1c2ccccc2C[C@H]1C(=O)NCC1CC1.O=C(O)C(F)(F)F [Example 4, 1-(2(S)-aminobutyryl)-indoline-2(S)-carboxylic acid N-(cyclopropylmethyl)amide trifluoroacetate] | 57 to 74 |  | 
